Values quoted from earlier work as cited in patent US10596159B2, “Method and composition for treating cachexia and eating disorders” (India Globalization Capital, Inc., priority 2015, dated 2020).
Like-named read-outs stand apart in the source and are kept apart here.

Key:
[1] = HIV-positive and cancer patients; Gorter, 1999
[2] = advanced cancer patients, Ronga, et al. 2014

SMILES	appetite stimulation (Suzuki, et al. 2013)	effect on weight loss (Suzuki, et al. 2013)	appetite stimulation [2]	effect on progressive weight loss [2]	appetite [1]	body weight [1]
CN1CCC(=C2c3ccccc3C=Cc3ccccc32)CC1.Cl [cyproheptadine, 4-(5H-dibenzo [a,d]cyclohepten-5-ylidene)-1-methylpiperidine hydrochloride]	effective in stimulating appetite	only slight effects on weight loss	only mildly stimulated appetite	did not prevent progressive weight loss	–	–
CCCCCc1cc(O)c2c(c1)OC(C)(C)[C@@H]1CCC(C)=C[C@@H]21 [THC, Delta-9-tetrahydrocannabinol]	–	–	–	–	stimulation of appetite	increase of body weight
